Results as given in PMC11089204 (Frontiers in Pharmacology, 2024).

Columns and labels:
[1] = test system: human liver microsomes (HLM); assay: Glucuronidation with human liver microsomes; format: in vitro ADME; settings: 1,000 nM psilocin with HLM and UGT co-factors
Method: (§1) Corning UltraPool human liver microsomes (HLM) 150 (20 mg/mL), human intestinal microsomes (HIM) pool (10 mg/mL) as well as recombinant human CYP enzymes (with P450 oxidoreductase, OR) including CYP1A2+OR (0.5 nmol), CYP2B6+OR (0.5 nmol), CYP2C8+OR (1.0 nmol), CYP2C9*1+OR (1 nmol), CYP2C19+OR (0.5 nmol), CYP2D6*1+OR (0.5 nmol), CYP2E1+OR + cytochrome b5 (1 nmol), CYP3A4+OR + cytochrome b5 (0.5 nmol), MAO-A (5 mg/mL), MAO-B (5 mg/mL), and UGT1A10 (5 mg/mL) were purchased from Corning Life Sciences B.V (Amsterdam, Netherlands). All microsomes and recombinant enzyme solutions were aliquoted and stored at −80 °C until further use. Co-factors including NADPH regenerating system solution A (25 mM NADP+, 66 mM glucose-6-phosphate, and 66 mM MgCl2 in water), NADPH regenerating system solution B (40 U/mL glucose-6-phosphate dehydrogenase in 5 mM sodium citrate), UGT reaction mix solution A (25 mM uridine 5′-diphospho-glucuronic acid in water), and UGT reaction mix solution B (250 mM Tris-HCl, 40 mM MgCl2, and 0.125 mg/mL alamethicin in water) were also obtained from Corning Life Sciences B.V.
The assay described in section 2.5.1 was adjusted to suit the glucuronidation system. […] HLM were diluted as described in section 2.5.1, while HIM or UGT1A10 enzymes were diluted 1:40 (end concentration […] and 0.125 mg/mL, respectively) in the reaction mix. […]

CYP2D6 = assay: Influence of CYP2D6 genotype on psilocin plasma exposure in humans; format: in vivo; settings: human, PM/IM/EM/UM genotypes, AUC z-scores
Method: Genomic DNA was extracted from whole blood using the QIAamp DNA Blood Mini Kit (Qiagen, Hombrechtikon, Switzerland) and an automated QIAcube system. SNP genotyping was performed using commercial TaqMan SNP genotyping assays (LuBio Science, Lucerne, Switzerland). We assayed the following SNPs and respective alleles: CYP2D6*3 (rs35742686, assay: C_32407232_50), CYP2D6*4 (rs3892097, assay: C_27102431_D0, and rs1065852, assay: C_11484460_40), CYP2D6*6 (rs5030655, assay: C_32407243_20), CYP2D6*9 (rs5030656, assay: C_32407229_60), CYP2D6*10 (rs1065852), CYP2D6*17 (rs28371706, assay: C_2222771_A0, and rs16947, assay: C_27102425_10), CYP2D6*29 (rs59421388, assay: C_3486113_20), and CYP2D6*41 (rs28371725, assay: C_34816116_20, and rs16947). CYP2D6 gene deletion (allele *5) and duplication/multiplication (allele *xN) were determined using a TaqMan Copy Number Assay (Hs04502391_cn). Activity scores for CYP2D6 were assigned according to established guidelines ([Gaedigk et al., 2008]; [Crews et al., 2012]; [Hicks et al., 2013]; [Hicks et al., 2015]; [Caudle et al., 2020]). The classification into different genotypes was as follows: poor metabolizer (PM, activity score = 0), intermediate metabolizer (IM, activity score = 0.5–1), extensive metabolizer (EM, activity score = 1.5–2), and ultra-rapid metabolizer (UM, activity score > 2).

[2] = test system: serotonin transporter (SERT); set-up: method as in Rickli et al., 2016; settings: ref Rickli et al., 2016; cited from earlier work
[3] = molecular target: T1, recombinant human UGT1A10 (Homo sapiens, UniProt Q9HAW8); assay: Glucuronidation with recombinant UGT1A10; format: in vitro ADME; settings: for psilocin concentration (mean ± SD): 1,000 nM psilocin
T1 construct: purchased Corning Life Sciences B.V
T1 sequence (Q9HAW8 26-530): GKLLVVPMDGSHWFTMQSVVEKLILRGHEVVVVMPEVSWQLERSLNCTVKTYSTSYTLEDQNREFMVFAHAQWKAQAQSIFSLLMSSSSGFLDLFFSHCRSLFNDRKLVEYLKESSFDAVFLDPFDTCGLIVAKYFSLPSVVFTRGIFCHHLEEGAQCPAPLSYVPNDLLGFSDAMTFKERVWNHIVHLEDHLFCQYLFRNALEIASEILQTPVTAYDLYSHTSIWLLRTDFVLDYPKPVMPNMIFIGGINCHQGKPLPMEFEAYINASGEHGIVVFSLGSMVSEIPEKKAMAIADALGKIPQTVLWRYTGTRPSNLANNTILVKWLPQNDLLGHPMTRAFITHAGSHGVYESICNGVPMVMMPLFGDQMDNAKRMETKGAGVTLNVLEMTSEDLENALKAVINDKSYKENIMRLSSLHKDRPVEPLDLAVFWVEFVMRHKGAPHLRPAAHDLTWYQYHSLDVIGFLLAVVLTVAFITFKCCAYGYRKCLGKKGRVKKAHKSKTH
Method: (§2) Corning UltraPool human liver microsomes (HLM) 150 (20 mg/mL), human intestinal microsomes (HIM) pool (10 mg/mL) as well as recombinant human CYP enzymes (with P450 oxidoreductase, OR) including CYP1A2+OR (0.5 nmol), CYP2B6+OR (0.5 nmol), CYP2C8+OR (1.0 nmol), CYP2C9*1+OR (1 nmol), CYP2C19+OR (0.5 nmol), CYP2D6*1+OR (0.5 nmol), CYP2E1+OR + cytochrome b5 (1 nmol), CYP3A4+OR + cytochrome b5 (0.5 nmol), MAO-A (5 mg/mL), MAO-B (5 mg/mL), and UGT1A10 (5 mg/mL) were purchased from Corning Life Sciences B.V (Amsterdam, Netherlands). All microsomes and recombinant enzyme solutions were aliquoted and stored at −80 °C until further use.
The assay described in section 2.5.1 was adjusted to suit the glucuronidation system.

recombinant CYP2C8 = molecular target: T2, recombinant CYP2C8 (Homo sapiens, UniProt P10632); assay: Incubation with recombinant CYP2C8 enzymes; format: in vitro ADME; settings: 1,000 nM psilocin, rec. CYP2C8
T2 construct: purchased Corning Life Sciences B.V
Method: as §2
The total volume of the reaction mixture was 500 μL. […] Samples were either directly analyzed by liquid chromatography tandem mass spectrometry (LC-MS/MS) or briefly stored at −20°C until analysis.

[4] = test system: human intestinal microsomes (HIM); assay: Glucuronidation with human intestinal microsomes; format: in vitro ADME; settings: for psilocin concentration: absence of HIM
Method: as §1
The assay described in section 2.5.1 was adjusted to suit the glucuronidation system. […] HLM were diluted as described in section 2.5.1, while HIM or UGT1A10 enzymes were diluted 1:40 (end concentration […] and 0.125 mg/mL, respectively) in the reaction mix. Sampling time points were adjusted to 0, 15, 30, 60, 90, 120, 180, and 240 min.

T2 sequence (P10632 whole entry): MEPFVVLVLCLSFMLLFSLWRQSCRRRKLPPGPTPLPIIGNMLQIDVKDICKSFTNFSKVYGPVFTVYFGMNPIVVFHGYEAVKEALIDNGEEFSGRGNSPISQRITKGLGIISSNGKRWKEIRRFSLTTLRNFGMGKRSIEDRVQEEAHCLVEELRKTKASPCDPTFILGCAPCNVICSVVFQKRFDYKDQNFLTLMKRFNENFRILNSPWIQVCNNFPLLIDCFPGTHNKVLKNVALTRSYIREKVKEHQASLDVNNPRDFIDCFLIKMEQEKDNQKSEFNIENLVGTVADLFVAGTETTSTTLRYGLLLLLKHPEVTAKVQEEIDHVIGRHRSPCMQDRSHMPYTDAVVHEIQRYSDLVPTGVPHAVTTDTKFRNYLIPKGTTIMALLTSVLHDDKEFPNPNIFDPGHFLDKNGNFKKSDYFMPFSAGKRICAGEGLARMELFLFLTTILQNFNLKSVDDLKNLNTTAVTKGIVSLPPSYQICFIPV

CN(C)CCc1c[nH]c2cccc(O)c12 [psilocin, 4-hydroxy-N,N-dimethyltryptamine]
glucuronidation of psilocin [1]: No glucuronidation was observed | effect of CYP2D6 genotype on plasma concentration of free psilocin (CYP2D6): did not alter | inhibition of SERT [2]: moderately inhibits | psilocin concentration (mean ± SD) ([3]; rec. UGT1A10, t = 0 min): 1,029 ± 60 nM | psilocin concentration (mean ± SD) ([3]; rec. UGT1A10, t = 240 min): 979 ± 95 nM | psilocin concentration ([3]; absence of UGT1A10, t = 0): 980 ± 77 nM | psilocin concentration ([3]; absence of UGT1A10, t = 240): 893 ± 91 nM | metabolism of psilocin (recombinant CYP2C8): did not metabolize | decrease of psilocin concentration through glucuronidation ([4]; 1,000 nM psilocin, HIM, 240 min): 37% | psilocin concentration (mean ± SD) ([4]; HIM, t = 0): 1,085 ± 157 nM | psilocin concentration (mean ± SD) ([4]; HIM, t = 240): 684 ± 53 nM | psilocin concentration ([4]; t = 0): 980 ± 77 nM | psilocin concentration ([4]; t = 240): 893 ± 91 nM
